Reference: ChEMBL document CHEMBL1122135, “Modifications of primaquine as antimalarials. 3. 5-Phenoxy derivatives of primaquine” (J Med Chem, 1982)

Experiments:
Mus musculus [1] = experiment: Number of mice (Mus musculus) survived after 60 days of post infection with Plasmodium berghei at a dose of 80 mg/kg; type: functional
Mus musculus [2] = experiment: Number of mice (Mus musculus) survived after 60 days of post infection with Plasmodium berghei at a dose of 20 mg/kg; type: functional
Mus musculus [3] = experiment: Number of mice (Mus musculus) survived after 60 days of post infection with Plasmodium berghei at a dose of 10 mg/kg; type: functional
Mus musculus [4] = experiment: Number of mice (Mus musculus) survived after 60 days of post infection with Plasmodium berghei at a dose of 40 mg/kg; type: functional
Mus musculus [5] = experiment: Number of mice (Mus musculus) survived after 60 days of post infection with Plasmodium berghei at a dose of 320 mg/kg; type: functional
Mus musculus [6] = experiment: Number of mice (Mus musculus) survived after 60 days of post infection with Plasmodium berghei at a dose of 160 mg/kg; type: functional
Mus musculus [7] = experiment: Number of mice (Mus musculus) survived after 60 days of post infection with Plasmodium berghei at a dose of 640 mg/kg; type: functional
Mus musculus [8] = experiment: Antimalarial activity was determined in Plasmodium berghei infected mice (Mus musculus) at 20 mg/kg dose; type: functional; set-up: unit not given beside the values
Plasmodium cynomolgi [9] = experiment: Cures in Plasmodium cynomolgi infected rhesus monkey at 1 mg/kg, n=1; type: functional
Mus musculus [10] = experiment: Antimalarial activity was determined in Plasmodium berghei infected mice (Mus musculus) at 40 mg/kg dose; type: functional; set-up: unit not given beside the values
Mus musculus [11] = experiment: (§1) Antimalarial activity was determined in Plasmodium berghei infected mice (Mus musculus) at 320 mg/kg dose; type: functional; set-up: unit not given beside the values
Plasmodium cynomolgi [12] = experiment: Cures in Plasmodium cynomolgi infected rhesus monkey at 10 mg/kg, n=1; type: functional
Mus musculus [13] = experiment: Number of toxic death was determined in Plasmodium berghei infected mice (Mus musculus) at 640 mg/kg dose; type: ADME, organism-based; set-up: dose 640 mg/kg; conditions: in vivo
Mus musculus [14] = experiment: Antimalarial activity was determined in Plasmodium berghei infected mice (Mus musculus) at 80 mg/kg dose; type: functional
Mus musculus [15] = experiment: Antimalarial activity was determined in Plasmodium berghei infected mice (Mus musculus) at 160 mg/kg dose; type: functional
Mus musculus [16] = experiment: Antimalarial activity was determined in Plasmodium berghei infected mice (Mus musculus) at 640 mg/kg dose; type: functional
Plasmodium cynomolgi [17] = experiment: Cures in Plasmodium cynomolgi infected rhesus monkey at 0.316 mg/kg, n=2; type: functional
Mus musculus [18] = experiment: Number of toxic death was determined in Plasmodium berghei infected mice (Mus musculus) at 320 mg/kg dose; type: ADME, organism-based; set-up: dose 320 mg/kg; conditions: in vivo
Mus musculus [19] = experiment: Antimalarial activity was determined in Plasmodium berghei infected mice (Mus musculus) at 10 mg/kg dose; type: functional
Plasmodium cynomolgi [20] = experiment: Cures in Plasmodium cynomolgi infected rhesus monkey at 1 mg/kg, n=2; type: functional
Plasmodium cynomolgi [21] = experiment: Cures in Plasmodium cynomolgi infected rhesus monkey at 0.316 mg/kg, n=4; type: functional
Mus musculus [22] = species: Mus musculus; experiment: Number of mice (Mus musculus) survived after 60 days of post infection with Plasmodium berghei; type: functional
Plasmodium cynomolgi [23] = experiment: Cures in Plasmodium cynomolgi infected rhesus monkey at 0.25 mg/kg, n=5; type: functional
Plasmodium cynomolgi [24] = experiment: Cures in Plasmodium cynomolgi infected rhesus monkey at 0.5 mg/kg; n=2; type: functional
Plasmodium cynomolgi [25] = experiment: Cures in Plasmodium cynomolgi infected rhesus monkey at 0.125 mg/kg, n=1; type: functional
Plasmodium cynomolgi [26] = experiment: Cures in Plasmodium cynomolgi infected rhesus monkey at 0.5 mg/kg, n=5; type: functional
Plasmodium cynomolgi [27] = experiment: Cures in Plasmodium cynomolgi infected rhesus monkey at 0.125 mg/kg; n=5; type: functional
Plasmodium cynomolgi [28] = experiment: Number of cures in Plasmodium cynomolgi infected rhesus monkey at 0.25 mg/kg, n=8; type: functional
Plasmodium cynomolgi [29] = experiment: Cures in Plasmodium cynomolgi infected rhesus monkey at 3.16 mg/kg, n=1; type: functional
Plasmodium cynomolgi [30] = experiment: Cures in Plasmodium cynomolgi infected rhesus monkey at 0.5 mg/kg, n=1; type: functional
Plasmodium cynomolgi [31] = experiment: Cures in Plasmodium cynomolgi infected rhesus monkey at 0.5 mg/kg, n=12; type: functional
Plasmodium cynomolgi [32] = experiment: Cures in Plasmodium cynomolgi infected rhesus monkey at 0.75 mg/kg, n=9; type: functional
Mus musculus [33] = experiment: Number of toxic death was determined in Plasmodium berghei infected mice (Mus musculus) at 160 mg/kg dose; type: ADME, organism-based; set-up: dose 160 mg/kg; conditions: in vivo
Plasmodium cynomolgi [34] = experiment: Cures in Plasmodium cynomolgi infected rhesus monkey at 3.16 mg/kg, n=2; type: functional
Plasmodium cynomolgi [35] = experiment: Cures in Plasmodium cynomolgi infected rhesus monkey at 1 mg/kg, n=3; type: functional
Mus musculus [36] = experiment: as §1; type: functional
Plasmodium cynomolgi [37] = experiment: Cures in Plasmodium cynomolgi infected rhesus monkey at 0.75 mg/kg, n=6; type: functional
Plasmodium cynomolgi [38] = experiment: Cures in Plasmodium cynomolgi infected rhesus monkey at 0.25 mg/kg, n=1; type: functional

SMILES | Delta MST (Mus musculus [8]) | Cures (Plasmodium cynomolgi [9]) | Delta MST (Mus musculus [10]) | Delta MST (Mus musculus [11]) | Cures (Plasmodium cynomolgi [12]) | Delta MST (Mus musculus [14]) | Delta MST (Mus musculus [15]) | other results
COc1cc(NC(C)CCCN)c2nccc(C)c2c1Oc1ccc(F)c(C(F)(F)F)c1 (stereo not given) |  |  |  |  |  |  |  | Cures (Mus musculus [1]): 5; Cures (Mus musculus [2]): 1; Cures (Mus musculus [3]): 1; Cures (Mus musculus [4]): 5; Cures (Mus musculus [5]): 5; Cures (Mus musculus [6]): 5; Cures (Mus musculus [7]): 5
COc1cc(NC(C)CCCN)c2ncccc2c1Oc1ccc(OC(F)(F)F)cc1 (stereo not given) | -0.3 | 0 | -0.3 | 0.7 | 1 | -0.3 | 0.5 | Toxic deaths (Mus musculus [13]): 1
COc1cc(NC(C)CCCN)c2ncccc2c1Oc1ccc(F)c(C(F)(F)F)c1 (stereo not given) | -0.2 | 1 | 0.8 | 12.2 |  | 3.4 | 4.6 | Cures (Mus musculus [16]): 2; Cures (Plasmodium cynomolgi [17]): 2
COc1cc(NC(C)CCCN)c2ncc(C)cc2c1Oc1ccc(F)c(C(F)(F)F)c1 (stereo not given) | 5.9 |  | 9.9 | 4 |  | 4 | 5 | Toxic deaths (Mus musculus [13]): 1
COc1cc(NC(C)CCCN)c2nccc(C)c2c1Oc1ccccc1 (stereo not given) |  |  |  |  |  |  |  | Cures (Mus musculus [1]): 4; Cures (Mus musculus [2]): 4; Cures (Mus musculus [4]): 3; Toxic deaths (Mus musculus [13]): 2; Toxic deaths (Mus musculus [18]): 3; Cures (Mus musculus [6]): 4; Delta MST (Mus musculus [19]): 8.7
COc1cc(NC(C)CCCN)c2nccc(C)c2c1Oc1cc(C(F)(F)F)cc(C(F)(F)F)c1 (stereo not given) | 4.3 |  |  |  |  |  |  | Cures (Mus musculus [1]): 5; Cures (Mus musculus [4]): 3; Cures (Mus musculus [5]): 5; Cures (Mus musculus [6]): 5; Delta MST (Mus musculus [19]): 1.7; Cures (Mus musculus [7]): 5
COc1cc(NC(C)CCCN)c2nccc(C)c2c1 (stereo not given) |  |  |  | 10 |  |  | 9 | Cures (Plasmodium cynomolgi [20]): 2; Cures (Plasmodium cynomolgi [21]): 0; Toxic deaths (Mus musculus [13]): 1
COc1cc(NC(C)CCCN)c2ncccc2c1Oc1ccccc1 (stereo not given) | 0.3 |  | 1.5 | 7.5 |  | 1.7 | 5.1 | Cures (Mus musculus [22]): 2
COc1cc(NC(C)CCCN)c2ncccc2c1Oc1cccc(C(F)(F)F)c1 (stereo not given) | 0.5 | 1 | 1.3 | 13.5 |  | 4.1 | 7.1 | Cures (Mus musculus [16]): 5; Cures (Plasmodium cynomolgi [23]): 3; Cures (Plasmodium cynomolgi [24]): 2; Cures (Plasmodium cynomolgi [25]): 0
COc1cc(NC(C)CCCN)c2ncccc2c1Oc1ccc(F)cc1 (stereo not given) |  |  | 2.1 | 8.9 |  | 5.7 | 7.5 | Cures (Plasmodium cynomolgi [26]): 5; Cures (Plasmodium cynomolgi [27]): 0; Cures (Plasmodium cynomolgi [28]): 3; Cures (Mus musculus [22]): 5
COc1cc(NC(C)CCCN)c2ncccc2c1Oc1cc(C(F)(F)F)cc(C(F)(F)F)c1 (stereo not given) | 0.7 | 0 | 0.3 | 6.3 | 1 | 0.3 | 1.5 | Delta MST (Mus musculus [16]): 7.9; Cures (Plasmodium cynomolgi [29]): 1
COc1cc(NC(C)CCCN)c2ncccc2c1Oc1ccc(NC(C)=O)cc1 (stereo not given) |  | 0 |  |  |  |  |  | Cures (Plasmodium cynomolgi [30]): 0
COc1cc(NC(C)CCCN)c2ncccc2c1 (stereo not given) [PRIMAQUINE] | 4 |  | 5 |  |  | 9.4 |  | Cures (Plasmodium cynomolgi [31]): 10; Cures (Plasmodium cynomolgi [32]): 9; Cures (Plasmodium cynomolgi [17]): 0; Cures (Plasmodium cynomolgi [28]): 0; Toxic deaths (Mus musculus [13]): 5; Toxic deaths (Mus musculus [18]): 5; Toxic deaths (Mus musculus [33]): 2
COc1cc(NC(C)CCCN)c2ncccc2c1Oc1ccc(Cl)cc1Cl (stereo not given) | 0.4 |  | 0.4 | 4.4 | 1 | 0.8 | 2.2 | Delta MST (Mus musculus [16]): 10.4; Cures (Plasmodium cynomolgi [34]): 2; Cures (Plasmodium cynomolgi [35]): 0
COc1ccc(Oc2c(OC)cc(NC(C)CCCN)c3ncccc23)cc1 (stereo not given) | 0.4 | 0 | 0.4 | 8.6 | 1 | 1.6 | 6 | Cure (Mus musculus [16]): 4
COc1cc(NC(C)CCCN)c2ncccc2c1Oc1ccc(Cl)c(Cl)c1 (stereo not given) | 1.2 |  | 0.8 |  | 1 | 0.4 | 6 | Cures (Mus musculus [16]): 1; Cures (Mus musculus [36]): 1; Cures (Plasmodium cynomolgi [34]): 2; Cures (Plasmodium cynomolgi [35]): 1
COc1cc(NC(C)CCCN)c2ncccc2c1Oc1ccc(Cl)cc1 (stereo not given) | 0.7 |  | 4.7 | 8.1 | 1 | 5.5 | 7.1 | Cures (Plasmodium cynomolgi [24]): 0; Cures (Plasmodium cynomolgi [37]): 5; Cures (Mus musculus [22]): 2; Cures (Plasmodium cynomolgi [38]): 0; Cures (Plasmodium cynomolgi [35]): 3
